In assay [1] the test system is Plasmodium knowlesi. As to the kind of experiment: Antimalarial activity against Plasmodium knowlesi infected Chinese rhesus macaques assessed as parasitemia level in blood smears at 40 mg/kg, intragastric treated 5 days before infection measured between day 0 to 7 by Giemsa-staining in presence of ritonavir 5 mg/kg, intragastric twice daily. In kind it is functional, organism-based.

Assay [2] deals with Plasmodium knowlesi. Put plainly: Antimalarial activity against Plasmodium knowlesi infected Chinese rhesus macaques assessed as parasitemia level in blood smears at 40 mg/kg, intragastric treated 5 days before infection measured between day 0 to 7 by Giemsa-staining in presence of ritonavir 10 mg/kg, intragastric once daily. Type of assay: functional, organism-based.

Active and inactive are the calls of the source. No cut-off for these calls is given here.

`CC(C)(C)NC(=O)[C@@H]1CN(Cc2cccnc2)CCN1C[C@@H](O)C[C@@H](Cc1ccccc1)C(=O)N[C@H]1c2ccccc2C[C@H]1O`: the inhibition entry in the assay on Plasmodium knowlesi [1] is “Active”. In the case of `Cc1cccc(C)c1OCC(=O)N[C@@H](Cc1ccccc1)[C@@H](O)C[C@H](Cc1ccccc1)NC(=O)[C@H](C(C)C)N1CCCNC1=O`, the inhibition result in the assay on Plasmodium knowlesi [2] is “inactive”.

Source of the values: ChEMBL document CHEMBL3399988, “Ritonavir-boosted indinavir but not lopinavir inhibits erythrocytic stage Plasmodium knowlesi malaria in rhesus macaques” (Bioorg Med Chem Lett, 2015).
